Key:
[1] = tested on: OHS osteosarcoma xenografts; experiment: Tissue distribution of 223Ra in Caelyx liposomes, nude mice with OHS osteosarcoma xenografts (Example 2); assay type: in vivo
Method: 10 nude mice were prepared with OHS osteosarcoma xenografts. Each mouse was trated subcutaneously with one dose of 375 kBq/kg of 223Ra encapsulated in Caelyx lipsomes as prepared in Example 1.
After 1 hour, one day and four days, three, three and four animals were sacrificed respectively and the tissue distribution of radioactive material was measured.
The distribution of radionuclide was also compared with a control in which the radium was administered as a salt in a solution of liposomes but not encapsulated thereby.

[2] = Main biodistribution and blood clearance study with four days pre-treatment; liposomal vs free 223Ra (Example 4); assay type: in vivo, Balb/C mice; conditions: i.v.
Method: In the main study, the mice were divided into four different groups. Each group consisted of 6-7 animals of both sexes. […] One mouse in each of groups two, three and four, were left untreated and were used to measure possible reuptake of the product from faeces or the bedding.
Blood was withdrawn, the mice were euthanised and the radioactivity measurements were performed in the same manner as in Example 3, 1 hour, 24 hours, 6 days and 14 days post injection for the respective groups of mice.
To study the difference between liposomally encapsulated and free ^223Ra, a group of mice was injected intravenously with dissolved ^223RaCl.

## [Cl][223Ra][Cl] [free ^223Ra, ^223RaCl]
[1]
  clearance from blood: rapid clearance
[2]
  half-life (T1/2) circulating in the blood: less than 1 hours
